According to US20220409619A1, “INHIBITORS OF HUMAN IMMUNODEFICIENCY VIRUS REPLICATION” (VIIV HEALTHCARE UK (No. 5) LIMITED, priority 2019, published 2022):
pEC50: −log10 of the molar value. Read-outs that look alike come from different tables or passages of the source.

Key:
Format in all cases: cell-based
uninfected MT2 cells = test: Compound cytotoxicity, XTT-based colorimetric assay; settings: day 4, XTT-based colorimetric assay
In short: (§1)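 Run under the antiviral-assay protocol but without virus. Viability was read on day 4 and CC50 values were derived from the readout.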

[1] = tested on: recombinant NL4-3 virus (nef section replaced with Renilla luciferase gene) in MT-2 cells; test: HIV cell culture assay (antiviral activity, luciferase readout)
In short: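 MT-2 cells were infected for 4-5 days with 293T-derived NL4-3 Renilla-luciferase reporter virus in the presence of serial compound dilutions. Luciferase was read with EnduRen live-cell substrate. EC50 was fitted with the median effect equation.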

[2] = Compound cytotoxicity, XTT-based colorimetric assay; settings: human; uninfected MT2 cells, day 4, XTT-based colorimetric assay
In short: as §1

SMILES: Cn1nc(NS(C)(=O)=O)c2c(Cl)ccc(-n3c([C@H](Cc4cc(F)cc(F)c4)NC(=O)Cn4nc(C(F)F)c5c4C(F)(F)[C@@H]4C[C@H]54)nc(-c4ccc(F)cc4F)cc3=O)c21 [Example 3, N-((S)-1-((1P)-1-(4-chloro-1-methyl-3-(methylsulfonamido)-1H-indazol-7-yl)-4-(2,4-difluorophenyl)-6-oxo-1,6-dihydropyrimidin-2-yl)-2-(3,5-difluorophenyl)ethyl)-2-((3bS,4aR)-3-(difluoromethyl)-5,5-difluoro-3b,4,4a,5-tetrahydro-1H-cyclopropa[3,4]cyclopenta[1,2-c]pyrazol-1-yl)acetamide]
- CC50 (uninfected MT2 cells): > 100 nM
- pEC50 ([1]; MT-2 cells infected for 4-5 days with recombinant NL4-3 Renilla luciferase virus, luciferase activity, read-out: EC50): 8.77

SMILES: CC(F)(F)Cn1ccc(-c2cc(=O)n(-c3ccc(Cl)c4c(NS(=O)(=O)C5CC5)nn(CC(F)F)c34)c([C@H](Cc3cc(F)cc(F)c3)NC(=O)Cn3nc(C(F)F)c4c3C(F)(F)[C@@H]3C[C@H]43)n2)n1 (atropisomer, axis not shown; (P)) [Example 42, N-((S)-1-((1P)-1-(4-chloro-3-(cyclopropanesulfonamido)-1-(2,2-difluoroethyl)-1H-indazol-7-yl)-4-(1-(2,2-difluoropropyl)-1H-pyrazol-3-yl)-6-oxo-1,6-dihydropyrimidin-2-yl)-2-(3,5-difluorophenyl)ethyl)-2-((3bS,4aR)-3-(difluoromethyl)-5,5-difluoro-3b,4,4a,5-tetrahydro-1H-cyclopropa[3,4]cyclopenta[1,2-c]pyrazol-1-yl)acetamide]
- CC50 at 4 days [2]: > 100 nM
- pEC50 ([1]; Renilla, NL43): 9.68

SMILES: O=C(Cn1nc(C(F)(F)F)c2c1C(F)(F)[C@@H]1C[C@H]21)N[C@@H](Cc1cc(F)cc(F)c1)c1nc(-c2nccc(C(F)F)n2)cc(=O)n1-c1ccc(Cl)c2c(NS(=O)(=O)C3CC3)nn(CC(F)F)c12 (atropisomer, axis not shown; (aR)) [Example 32, N-((S)-1-((1′P)-1′-(4-chloro-3-(cyclopropanesulfonamido)-1-(2,2-difluoroethyl)-1H-indazol-7-yl)-4-(difluoromethyl)-6′-oxo-1′,6′-dihydro-[2,4′-bipyrimidin]-2′-yl)-2-(3,5-difluorophenyl)ethyl)-2-((3bS,4aR)-5,5-difluoro-3-(trifluoromethyl)-3b,4,4a,5-tetrahydro-1H-cyclopropa[3,4]cyclopenta[1,2-c]pyrazol-1-yl)acetamide]
- CC50 at 4 days [2]: > 100 nM
- pEC50 ([1]; Renilla, NL43): 9.52

SMILES: COC(C)(C)CCc1cc(=O)n(-c2ccc(Cl)c3c(NS(C)(=O)=O)nn(C)c23)c([C@H](Cc2cc(F)cc(F)c2)NC(=O)Cn2nc(C(F)F)c3c2C(F)(F)[C@@H]2C[C@H]32)n1 (atropisomer, axis not shown; (P)) [Example 10, N-((S)-1-((1P)-1-(4-chloro-1-methyl-3-(methylsulfonamido)-1H-indazol-7-yl)-4-(3-methoxy-3-methylbutyl)-6-oxo-1,6-dihydropyrimidin-2-yl)-2-(3,5-difluorophenyl)ethyl)-2-((3bS,4aR)-3-(difluoromethyl)-5,5-difluoro-3b,4,4a,5-tetrahydro-1H-cyclopropa[3,4]cyclopenta[1,2-c]pyrazol-1-yl)acetamide]
- CC50 at 4 days [2]: > 100 nM
- pEC50 ([1]; Renilla, NL43): 10.10

SMILES: CCOc1ncc(-c2cc(=O)n(-c3ccc(Cl)c4c(NS(C)(=O)=O)nn(C)c34)c([C@H](Cc3cc(F)cc(F)c3)NC(=O)Cn3nc(C(F)F)c4c3C(F)(F)[C@@H]3C[C@H]43)n2)cn1 (atropisomer, axis not shown; (P)) [Example 11, N-((S)-1-((1P)-1-(4-chloro-1-methyl-3-(methylsulfonamido)-1H-indazol-7-yl)-2′-ethoxy-6-oxo-1,6-dihydro-[4,5′-bipyrimidin]-2-yl)-2-(3,5-difluorophenyl)ethyl)-2-((3bS,4aR)-3-(difluoromethyl)-5,5-difluoro-3b,4,4a,5-tetrahydro-1H-cyclopropa[3,4]cyclopenta[1,2-c]pyrazol-1-yl)acetamide]
- CC50 at 4 days [2]: > 100 nM
- pEC50 ([1]; Renilla, NL43): 9.09

SMILES: O=C(Cn1nc(C(F)F)c2c1C(F)(F)[C@@H]1C[C@H]21)N[C@@H](Cc1cc(F)cc(F)c1)c1nc(-c2cnccn2)cc(=O)n1-c1ccc(Cl)c2c(NS(=O)(=O)C3CC3)nn(CC(F)F)c12 (atropisomer, axis not shown; (P)) [Example 50, N-((S)-1-((1P)-1-(4-chloro-3-(cyclopropanesulfonamido)-1-(2,2-difluoroethyl)-1H-indazol-7-yl)-6-oxo-4-(pyrazin-2-yl)-1,6-dihydropyrimidin-2-yl)-2-(3,5-difluorophenyl)ethyl)-2-((3bS,4aR)-3-(difluoromethyl)-5,5-difluoro-3b,4,4a,5-tetrahydro-1H-cyclopropa[3,4]cyclopenta[1,2-c]pyrazol-1-yl)acetamide]
- CC50 at 4 days [2]: > 100 nM
- pEC50 ([1]; Renilla, NL43): 9.09

SMILES: Cn1nc(NS(C)(=O)=O)c2c(Cl)ccc(-n3c([C@H](Cc4cc(F)cc(F)c4)NC(=O)Cn4nc(C(F)F)c5c4C(F)(F)[C@@H]4C[C@H]54)nc(-c4nccc(C(F)(F)F)n4)cc3=O)c21 (atropisomer, axis not shown; (aR)) [Example 6, N-((S)-1-((1′P)-1′-(4-chloro-1-methyl-3-(methylsulfonamido)-1H-indazol-7-yl)-6′-oxo-4-(trifluoromethyl)-1′,6′-dihydro-[2,4′-bipyrimidin]-2′-yl)-2-(3,5-difluorophenyl)ethyl)-2-((3bS,4aR)-3-(difluoromethyl)-5,5-difluoro-3b,4,4a,5-tetrahydro-1H-cyclopropa[3,4]cyclopenta[1,2-c]pyrazol-1-yl)acetamide]
- CC50 at 4 days [2]: > 100 nM
- pEC50 ([1]; Renilla, NL43): 10.27

SMILES: COC(C)(C)C#Cc1cc(=O)n(-c2ccc(Cl)c3c(NS(=O)(=O)C4CC4)nn(CC(F)F)c23)c([C@H](Cc2cc(F)cc(F)c2)NC(=O)Cn2nc(C(F)F)c3c2C(F)(F)[C@@H]2C[C@H]32)n1 (atropisomer, axis not shown; (P)) [Example 41, N-((S)-1-((1P)-1-(4-chloro-3-(cyclopropanesulfonamido)-1-(2,2-difluoroethyl)-1H-indazol-7-yl)-4-(3-methoxy-3-methylbut-1-yn-1-yl)-6-oxo-1,6-dihydropyrimidin-2-yl)-2-(3,5-difluorophenyl)ethyl)-2-((3bS,4aR)-3-(difluoromethyl)-5,5-difluoro-3b,4,4a,5-tetrahydro-1H-cyclopropa[3,4]cyclopenta[1,2-c]pyrazol-1-yl)acetamide]
- CC50 at 4 days [2]: > 100 nM
- pEC50 ([1]; Renilla, NL43): 10.19
